Measurements reported in ChEMBL document CHEMBL1955827, “Influence of ring size on the cognition-enhancing activity of DM235 and MN19, two potent nootropic drugs” (Bioorg Med Chem Lett, 2012).
Active and inactive are the calls of the source. The rule behind the calls is not given here.

Key:
Mus musculus [1] = assay: Nootropic activity against scopolamine-induced amnesia in mouse assessed as increase in latency period to enter dark room up to 10 mg/kg, ip administered 20 mins prior to test by passive avoidance test (reference value: 91.7 sec); type: functional, organism-based; parameters: dose 10 mg/kg
Mus musculus [2] = assay: Nootropic activity against scopolamine-induced amnesia in mouse assessed as increase in latency time to enter dark room at 1 mg/kg, ip administered 20 mins prior to test by passive avoidance test (reference value: 91.7 sec); type: functional; settings: route intraperitoneal
Mus musculus [3] = assay: Neurotoxicity in mouse assessed as effect on gross behaviour at 10 mg/kg, ip by rotarod test; type: toxicity, organism-based; parameters: dose 10 mg/kg, route intraperitoneal; settings: in vivo
Mus musculus [4] = assay: Neurotoxicity in mouse assessed as effect on spontaneous motility at 10 mg/kg, ip by hole-board test; type: toxicity, organism-based; parameters: dose 10 mg/kg, route intraperitoneal; settings: in vivo
Mus musculus [5] = assay: Neurotoxicity in mouse assessed as effect on inspection activity at 10 mg/kg, ip by hole-board test; type: toxicity, organism-based; parameters: dose 10 mg/kg, route intraperitoneal; settings: in vivo
Mus musculus [6] = assay: Nootropic activity against scopolamine-induced amnesia in mouse assessed as increase in latency time to enter dark room at 10 mg/kg, ip administered 20 mins prior to test by passive avoidance test (reference value: 91.7 sec); type: functional; settings: route intraperitoneal
Mus musculus [7] = assay: Neurotoxicity in mouse assessed as effect on motor coordination at 10 mg/kg, ip by rotarod test; type: toxicity, organism-based; parameters: dose 10 mg/kg, route intraperitoneal; settings: in vivo
Mus musculus [8] = assay: Neurotoxicity in mouse assessed as effect on motor coordination at 1 mg/kg, ip by rotarod test; type: toxicity, organism-based; parameters: dose 1 mg/kg, route intraperitoneal; settings: in vivo
Mus musculus [9] = assay: Neurotoxicity in mouse assessed as effect on spontaneous motility at 1 mg/kg, ip by hole-board test; type: toxicity, organism-based; parameters: dose 1 mg/kg, route intraperitoneal; settings: in vivo
Mus musculus [10] = assay: Neurotoxicity in mouse assessed as effect on inspection activity at 1 mg/kg, ip by hole-board test; type: toxicity, organism-based; parameters: dose 1 mg/kg, route intraperitoneal; settings: in vivo
Mus musculus [11] = assay: Neurotoxicity in mouse assessed as effect on gross behavior at 1 mg/kg, ip by rota-rod test; type: toxicity, organism-based; parameters: dose 1 mg/kg, route intraperitoneal; settings: in vivo
Mus musculus [12] = assay: Neurotoxicity in mouse assessed as effect on spontaneous motility at 0.001 mg/kg, ip by hole-board test; type: toxicity, organism-based; parameters: dose 0.001 mg/kg, route intraperitoneal; settings: in vivo
Mus musculus [13] = assay: Nootropic activity against scopolamine-induced amnesia in mouse assessed as increase in latency time to enter dark room at 0.001 mg/kg, ip administered 20 mins prior to test by passive avoidance test (reference value: 91.7 sec); type: functional; settings: route intraperitoneal
Mus musculus [14] = assay: Neurotoxicity in mouse assessed as effect on gross behaviour at 0.001 mg/kg, ip by rotarod test; type: toxicity, organism-based; parameters: dose 0.001 mg/kg, route intraperitoneal; settings: in vivo
Mus musculus [15] = assay: Neurotoxicity in mouse assessed as effect on motor coordination at 0.001 mg/kg, ip by rotarod test; type: toxicity, organism-based; parameters: dose 0.001 mg/kg, route intraperitoneal; settings: in vivo
Mus musculus [16] = assay: Neurotoxicity in mouse assessed as effect on inspection activity at 0.001 mg/kg, ip by hole-board test; type: toxicity, organism-based; parameters: dose 0.001 mg/kg, route intraperitoneal; settings: in vivo
Mus musculus [17] = assay: Nootropic activity against scopolamine-induced amnesia in mouse assessed as increase in latency time to enter dark room at 0.01 mg/kg, ip administered 20 mins prior to test by passive avoidance test (reference value: 91.7 sec); type: functional; settings: route intraperitoneal
Mus musculus [18] = assay: Neurotoxicity in mouse assessed as effect on spontaneous motility at 0.01 mg/kg, ip by hole-board test; type: toxicity, organism-based; parameters: dose 0.01 mg/kg, route intraperitoneal; settings: in vivo
Mus musculus [19] = assay: Neurotoxicity in mouse assessed as effect on inspection activity at 0.01 mg/kg, ip by hole-board test; type: toxicity, organism-based; parameters: dose 0.01 mg/kg, route intraperitoneal; settings: in vivo
Mus musculus [20] = assay: Neurotoxicity in mouse assessed as effect on motor coordination at 0.01 mg/kg, ip by rotarod test; type: toxicity, organism-based; parameters: dose 0.01 mg/kg, route intraperitoneal; settings: in vivo
Mus musculus [21] = assay: Neurotoxicity in mouse assessed as effect on gross behavior at 0.01 mg/kg, ip by rota-rod test; type: toxicity, organism-based; parameters: dose 0.01 mg/kg, route intraperitoneal; settings: in vivo
Mus musculus [22] = assay: Neurotoxicity in mouse assessed as effect on motor coordination at 30 mg/kg, ip by rotarod test; type: toxicity, organism-based; parameters: dose 30 mg/kg, route intraperitoneal; settings: in vivo
Mus musculus [23] = assay: Neurotoxicity in mouse assessed as effect on spontaneous motility at 30 mg/kg, ip by hole-board test; type: toxicity, organism-based; parameters: dose 30 mg/kg, route intraperitoneal; settings: in vivo
Mus musculus [24] = assay: Neurotoxicity in mouse assessed as effect on inspection activity at 30 mg/kg, ip by hole-board test; type: toxicity, organism-based; parameters: dose 30 mg/kg, route intraperitoneal; settings: in vivo
Mus musculus [25] = assay: Neurotoxicity in mouse assessed as effect on gross behavior at 30 mg/kg, ip by rota-rod test; type: toxicity, organism-based; parameters: dose 30 mg/kg, route intraperitoneal; settings: in vivo
Mus musculus [26] = assay: Neurotoxicity in mouse assessed as effect on inspection activity at 0.1 mg/kg, ip by hole-board test; type: toxicity, organism-based; parameters: dose 0.1 mg/kg, route intraperitoneal; settings: in vivo
Mus musculus [27] = assay: Nootropic activity against scopolamine-induced amnesia in mouse assessed as increase in latency time to enter dark room at 0.1 mg/kg, ip administered 20 mins prior to test by passive avoidance test (reference value: 91.7 sec); type: functional; settings: route intraperitoneal
Mus musculus [28] = assay: Neurotoxicity in mouse assessed as effect on spontaneous motility at 0.1 mg/kg, ip by hole-board test; type: toxicity, organism-based; parameters: dose 0.1 mg/kg, route intraperitoneal; settings: in vivo
Mus musculus [29] = assay: Neurotoxicity in mouse assessed as effect on motor coordination at 0.1 mg/kg, ip by rotarod test; type: toxicity, organism-based; parameters: dose 0.1 mg/kg, route intraperitoneal; settings: in vivo
Mus musculus [30] = assay: Neurotoxicity in mouse assessed as effect on gross behavior at 0.1 mg/kg, ip by rota-rod test; type: toxicity, organism-based; parameters: dose 0.1 mg/kg, route intraperitoneal; settings: in vivo

## CC(=O)NC1CCCN(S(=O)(=O)c2ccc(F)cc2)CC1 (stereo not drawn)
Mus musculus [1]
  Activity: inactive
Mus musculus [2]
  Time: 62.7 s

## CC(=O)NC1CCN(C(=O)c2ccccc2)C1 (stereo not drawn)
Mus musculus [3]
  Activity: Non-toxic
Mus musculus [4]
  Activity: Non-toxic
Mus musculus [5]
  Activity: Non-toxic
Mus musculus [6]
  Time: 70.3 s
Mus musculus [7]
  Activity: Non-toxic

## CC(=O)N1CCCC(NS(=O)(=O)c2ccc(F)cc2)CC1 (stereo not drawn)
Mus musculus [2]
  Time: 45.8 s
Mus musculus [8]
  Activity: Non-toxic
Mus musculus [9]
  Activity: Non-toxic
Mus musculus [10]
  Activity: Non-toxic
Mus musculus [11]
  Activity: Non-toxic

## CC(=O)NC1CCCN(C(=O)c2ccccc2)CC1 (stereo not drawn)
Mus musculus [1]
  Activity: inactive

## CCC(=O)NC1CN(S(=O)(=O)c2ccc(F)cc2)C1
Mus musculus [3]
  Activity: Non-toxic
Mus musculus [4]
  Activity: Non-toxic
Mus musculus [5]
  Activity: Non-toxic
Mus musculus [6]
  Time: 44.1 s
Mus musculus [7]
  Activity: Non-toxic

## CCC(=O)N1CCCC(NS(=O)(=O)c2ccc(F)cc2)CC1 (stereo not drawn)
Mus musculus [6]
  Time: 81.4 s

## CC(=O)N1CCCC(NC(=O)c2ccccc2)CC1 (stereo not drawn)
Mus musculus [2]
  Time: 70.4 s
Mus musculus [8]
  Activity: Non-toxic
Mus musculus [9]
  Activity: Non-toxic
Mus musculus [10]
  Activity: Non-toxic
Mus musculus [11]
  Activity: Non-toxic

## CCC(=O)NC1CCCN(C(=O)c2ccccc2)CC1 (stereo not drawn)
Mus musculus [2]
  Time: 62.7 s
Mus musculus [8]
  Activity: Non-toxic
Mus musculus [9]
  Activity: Non-toxic
Mus musculus [10]
  Activity: Non-toxic
Mus musculus [11]
  Activity: Non-toxic

## CCC(=O)N1CCC(NS(=O)(=O)c2ccc(F)cc2)C1 (stereo not drawn)
Mus musculus [1]
  Activity: inactive

## CCC(=O)NC1CCCN(C(=O)c2ccccc2)CCC1
Mus musculus [1]
  Activity: inactive

## CCC(=O)N1CCN(C(=O)c2ccccc2)CC1 [SUNIFIRAM]
Mus musculus [12]
  Activity: Non-toxic
Mus musculus [13]
  Time: 71 s
Mus musculus [14]
  Activity: Non-toxic
Mus musculus [15]
  Activity: Non-toxic
Mus musculus [16]
  Activity: Non-toxic

## CC(=O)N1CCCN(C(=O)c2ccccc2)CCC1
Mus musculus [1]
  Activity: inactive

## CC(=O)NC1CCCN(C(=O)c2ccccc2)CCC1
Mus musculus [1]
  Activity: inactive

## CCC(=O)NC1CCCN(S(=O)(=O)c2ccc(F)cc2)CC1 (stereo not drawn)
Mus musculus [3]
  Activity: Non-toxic
Mus musculus [4]
  Activity: Non-toxic
Mus musculus [5]
  Activity: Non-toxic
Mus musculus [6]
  Time: 46.8 s
Mus musculus [7]
  Activity: Non-toxic

## CC(=O)NC1CCN(S(=O)(=O)c2ccc(F)cc2)CC1 [SAPUNIFIRAM]
Mus musculus [17]
  Time: 76.1 s
Mus musculus [18]
  Activity: Non-toxic
Mus musculus [19]
  Activity: Non-toxic
Mus musculus [20]
  Activity: Non-toxic
Mus musculus [21]
  Activity: Non-toxic

## CC(=O)NC1CCN(S(=O)(=O)c2ccc(F)cc2)C1 (stereo not drawn)
Mus musculus [2]
  Time: 51 s
Mus musculus [8]
  Activity: Non-toxic
Mus musculus [9]
  Activity: Non-toxic
Mus musculus [10]
  Activity: Non-toxic
Mus musculus [11]
  Activity: Non-toxic

## CC(=O)NC1CCCN(S(=O)(=O)c2ccc(F)cc2)CCC1
Mus musculus [2]
  Time: 44.8 s
Mus musculus [8]
  Activity: Non-toxic
Mus musculus [9]
  Activity: Non-toxic
Mus musculus [10]
  Activity: Non-toxic
Mus musculus [11]
  Activity: Non-toxic

## NC(=O)CN1CCCC1=O [PIRACETAM]
Mus musculus [22]
  Activity: Non-toxic
Mus musculus [23]
  Activity: Non-toxic
Mus musculus [24]
  Activity: Non-toxic
Mus musculus [25]
  Activity: Non-toxic

## CCC(=O)NC1CN(C(=O)c2ccccc2)C1
Mus musculus [1]
  Activity: inactive

## CCC(=O)NC1CCN(S(=O)(=O)c2ccc(F)cc2)C1 (stereo not drawn)
Mus musculus [26]
  Activity: Non-toxic
Mus musculus [27]
  Time: 48.8 s
Mus musculus [28]
  Activity: Non-toxic
Mus musculus [29]
  Activity: Non-toxic
Mus musculus [30]
  Activity: Non-toxic

## CC(=O)N1CCCN(S(=O)(=O)c2ccc(F)cc2)CCC1
Mus musculus [1]
  Activity: inactive

## CCC(=O)N1CCCC(NC(=O)c2ccccc2)CC1 (stereo not drawn)
Mus musculus [2]
  Time: 69.4 s
Mus musculus [8]
  Activity: Non-toxic
Mus musculus [9]
  Activity: Non-toxic
Mus musculus [10]
  Activity: Non-toxic
Mus musculus [11]
  Activity: Non-toxic

## CCC(=O)NC1CCN(C(=O)c2ccccc2)C1 (stereo not drawn)
Mus musculus [2]
  Time: 45.4 s
Mus musculus [8]
  Activity: Non-toxic
Mus musculus [9]
  Activity: Non-toxic
Mus musculus [10]
  Activity: Non-toxic
Mus musculus [11]
  Activity: Non-toxic

## CCC(=O)N1CCC(NC(=O)c2ccccc2)C1 (stereo not drawn)
Mus musculus [1]
  Activity: inactive

## CCC(=O)N[C@H]1CCN(S(=O)(=O)c2ccc(F)cc2)C1
Mus musculus [2]
  Time: 56.6 s
Mus musculus [8]
  Activity: Non-toxic
Mus musculus [9]
  Activity: Non-toxic
Mus musculus [10]
  Activity: Non-toxic
Mus musculus [11]
  Activity: Non-toxic

## CCC(=O)N[C@@H]1CCN(S(=O)(=O)c2ccc(F)cc2)C1
Mus musculus [3]
  Activity: Non-toxic
Mus musculus [4]
  Activity: Non-toxic
Mus musculus [5]
  Activity: Non-toxic
Mus musculus [6]
  Time: 69.4 s
Mus musculus [7]
  Activity: Non-toxic

## CC(=O)N1CCC(NC(=O)c2ccccc2)C1 (stereo not drawn)
Mus musculus [2]
  Time: 48.1 s
Mus musculus [8]
  Activity: Non-toxic
Mus musculus [9]
  Activity: Non-toxic
Mus musculus [10]
  Activity: Non-toxic
Mus musculus [11]
  Activity: Non-toxic

## CCC(=O)NC1CCCN(S(=O)(=O)c2ccc(F)cc2)CCC1
Mus musculus [3]
  Activity: Non-toxic
Mus musculus [4]
  Activity: Non-toxic
Mus musculus [5]
  Activity: Non-toxic
Mus musculus [6]
  Time: 72.2 s
Mus musculus [7]
  Activity: Non-toxic

## CCC(=O)N1CCCN(S(=O)(=O)c2ccc(F)cc2)CCC1
Mus musculus [1]
  Activity: inactive

## CCC(=O)N1CCCN(C(=O)c2ccccc2)CCC1
Mus musculus [1]
  Activity: inactive

## CC(=O)N1CCC(NS(=O)(=O)c2ccc(F)cc2)C1 (stereo not drawn)
Mus musculus [1]
  Activity: inactive
